# According to the supplement of paper PMC10307832:
# What was measured:
# Test in all cases: relative viability (nuclei count vs DMSO), 5 days (fraction); higher = more cells survive
# [1] = test system: H3255
# How it was run: (§1)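 Lung cancer cell lines in 1536-well plates were dosed by pin tool the day after seeding, either with one drug alone or with a fixed anchor-drug dose plus five library-drug doses (not always all listed) in √10 steps. After 5 days, cells were fixed and their nuclei stained in one step (final 0.05% Triton X-100, 1% formaldehyde, 1 ug/ml Hoechst), then counted on 4× images. Relative viability is the nuclei count in treated wells divided by that in vehicle wells. Values are medians of duplicate plates.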
# [2] = test system: PC-14
# How it was run: as §1
# [3] = test system: LK-2
# How it was run: as §1
# [4] = test system: NCI-H460
# How it was run: as §1
# [5] = test system: LU99A
# How it was run: as §1
# [6] = test system: NCI-H2347
# How it was run: as §1
# [7] = test system: LC-2-ad
# How it was run: as §1
# [8] = test system: SW 900
# How it was run: as §1
# [9] = test system: COR-L23
# How it was run: as §1
# [10] = test system: LCLC-103H
# How it was run: as §1
# [11] = test system: NCI-H1563
# How it was run: as §1
# [12] = test system: NCI-H23
# How it was run: as §1
# [13] = test system: SW 1573
# How it was run: as §1
# [14] = test system: NCI-H596
# How it was run: as §1
# [15] = test system: LCLC-97TM1
# How it was run: as §1
# [16] = test system: NCI-H2228
# How it was run: as §1
# [17] = test system: HCC-44
# How it was run: as §1
# [18] = test system: 201T
# How it was run: as §1
# [19] = test system: NCI-H727
# How it was run: as §1
# [20] = test system: NCI-H1650
# How it was run: as §1
# [21] = test system: A-427
# How it was run: as §1
# [22] = test system: PC-3 [JPC-3]
# How it was run: as §1
# [23] = test system: NCI-H1793
# How it was run: as §1
structure (smiles),measurement,setting,value
COc1nc(C)cnc1NS(=O)(=O)c1cccnc1-c1ccc(-c2nnco2)cc1 [Zibotentan] + COc1cccc2cc(-c3nc([C@H]4CC[C@H](C(=O)O)CC4)n4ncnc(N)c34)[nH]c12 [OSI-027] (partner 0.5 µM),relative viability,[1]; first compound 0.08 µM,0.536
same,relative viability,[1]; first compound 0.253 µM,0.542
same,relative viability,[1]; first compound 0.8 µM,0.576
same,relative viability,[1]; first compound 2.53 µM,0.526
same,relative viability,[2]; first compound 0.08 µM,0.926
same,relative viability,[2]; first compound 0.253 µM,0.651
same,relative viability,[2]; first compound 0.8 µM,1.06
same,relative viability,[2]; first compound 2.53 µM,0.929
same,relative viability,[3]; first compound 0.08 µM,0.207
same,relative viability,[3]; first compound 0.253 µM,0.173
same,relative viability,[3]; first compound 0.8 µM,0.244
same,relative viability,[3]; first compound 2.53 µM,0.216
same,relative viability,[4]; first compound 0.08 µM,0.665
same,relative viability,[4]; first compound 0.253 µM,0.408
same,relative viability,[4]; first compound 0.8 µM,0.593
same,relative viability,[4]; first compound 2.53 µM,0.66
same,relative viability,[5]; first compound 0.08 µM,0.32
same,relative viability,[5]; first compound 0.253 µM,0.302
same,relative viability,[5]; first compound 0.8 µM,0.274
same,relative viability,[5]; first compound 2.53 µM,0.338
same,relative viability,[6]; first compound 0.253 µM,0.384
same,relative viability,[6]; first compound 0.8 µM,0.49
same,relative viability,[6]; first compound 2.53 µM,0.259
same,relative viability,[7]; first compound 0.08 µM,0.817
same,relative viability,[7]; first compound 0.8 µM,1.13
same,relative viability,[7]; first compound 2.53 µM,0.79
same,relative viability,[8]; first compound 0.08 µM,0.623
same,relative viability,[8]; first compound 0.253 µM,0.607
same,relative viability,[8]; first compound 0.8 µM,0.528
same,relative viability,[8]; first compound 2.53 µM,0.496
same,relative viability,[9]; first compound 0.08 µM,0.713
same,relative viability,[9]; first compound 0.253 µM,0.651
same,relative viability,[9]; first compound 0.8 µM,0.789
same,relative viability,[9]; first compound 2.53 µM,0.798
same,relative viability,[10]; first compound 0.08 µM,0.453
same,relative viability,[10]; first compound 0.253 µM,0.467
same,relative viability,[10]; first compound 0.8 µM,0.451
same,relative viability,[10]; first compound 2.53 µM,0.465
same,relative viability,[11]; first compound 0.08 µM,0.767
same,relative viability,[11]; first compound 0.8 µM,0.761
same,relative viability,[11]; first compound 2.53 µM,0.77
same,relative viability,[12]; first compound 0.08 µM,0.63
same,relative viability,[12]; first compound 0.253 µM,0.619
same,relative viability,[12]; first compound 0.8 µM,0.389
same,relative viability,[12]; first compound 2.53 µM,0.743
same,relative viability,[13]; first compound 0.08 µM,0.651
same,relative viability,[13]; first compound 0.8 µM,0.699
same,relative viability,[13]; first compound 2.53 µM,0.659
same,relative viability,[14]; first compound 0.08 µM,0.776
same,relative viability,[14]; first compound 0.253 µM,0.643
same,relative viability,[14]; first compound 0.8 µM,0.52
same,relative viability,[14]; first compound 2.53 µM,0.717
same,relative viability,[15]; first compound 0.08 µM,0.602
same,relative viability,[15]; first compound 0.253 µM,0.72
same,relative viability,[15]; first compound 0.8 µM,0.606
same,relative viability,[15]; first compound 2.53 µM,0.49
same,relative viability,[16]; first compound 0.08 µM,0.623
same,relative viability,[16]; first compound 0.253 µM,0.571
same,relative viability,[16]; first compound 0.8 µM,0.484
same,relative viability,[16]; first compound 2.53 µM,0.659
same,relative viability,[17]; first compound 0.08 µM,0.585
same,relative viability,[17]; first compound 0.8 µM,0.621
same,relative viability,[17]; first compound 2.53 µM,0.558
same,relative viability,[18]; first compound 0.08 µM,0.819
same,relative viability,[18]; first compound 0.253 µM,0.699
same,relative viability,[18]; first compound 0.8 µM,0.679
same,relative viability,[18]; first compound 2.53 µM,0.755
same,relative viability,[19]; first compound 0.08 µM,0.591
same,relative viability,[19]; first compound 0.253 µM,0.499
same,relative viability,[19]; first compound 0.8 µM,0.601
same,relative viability,[19]; first compound 2.53 µM,0.696
same,relative viability,[20]; first compound 0.08 µM,0.579
same,relative viability,[20]; first compound 0.8 µM,0.644
same,relative viability,[20]; first compound 2.53 µM,0.716
same,relative viability,[21]; first compound 0.08 µM,0.54
same,relative viability,[21]; first compound 0.253 µM,0.425
same,relative viability,[21]; first compound 0.8 µM,0.501
same,relative viability,[21]; first compound 2.53 µM,0.579
same,relative viability,[22]; first compound 0.08 µM,0.789
same,relative viability,[22]; first compound 0.253 µM,0.791
same,relative viability,[22]; first compound 0.8 µM,0.737
same,relative viability,[22]; first compound 2.53 µM,0.89
same,relative viability,[23]; first compound 0.08 µM,0.351
same,relative viability,[23]; first compound 0.253 µM,0.284
same,relative viability,[23]; first compound 0.8 µM,0.224
same,relative viability,[23]; first compound 2.53 µM,0.254
